A short description of data set [1]: Solubility determination in water (vortex, sonication at ~50° C, HPLC of supernatant). In kind it is physicochemical. The conditions noted are these: for Solubility: water, vortexed and sonicated ~5-10 min at ~50° C, HPLC. As for the experimental part: The disalts described herein can have a relatively high solubility, e.g., water solubility. As used herein, the “solubility” of a disalt in a solvent refers to the maximum mass of a disalt that can be dissolved per unit volume of the solvent under accelerated dissolution conditions (50-60° C. with concommitant ultrasonic agitation of the disalt/solvent test sample). Unless otherwise indicated, solubility data is expressed in terms of units of milligrams (mg)/milliliter (mL), e.g., mg/mL.
The compound was weighed, and water was added to it such that the ratio of the sample and water of the mixture would be 100 mg/mL. The mixture was then shaken using a Vortex-Genie2 shaker (vortexed) and sonicated (˜5-10 min at ˜50° C). If a clear solution has been obtained, more compound was added to the solution, and a mixture was vortexed and sonicated until a homogeneous suspension was achieved. The suspension was then centrifuged at 10,000 rpm for about 10 min. The supernatant was taken out and diluted with 50/50 (v/v) EtOH/water, then the sample was analyzed by HPLC to determine the concentration.
The HPLC system consisted of the HP 1100 Model (Agilent, Wilmington, Del.) equipped with a model 1100 quaternary pump, a model 1100 autosampler, a model 1100 Diode-Array Detector for UV detection at 320 nm. The HPLC analysis was performed using an isocratic mobile phase consisting of acetonitrile-water containing 10 mM NH4OAc . Mobile phases were degassed and filtered through a solvent filtration apparatus and pumped at a constant rate of 1.0 mL/min. The separation was made on an XTerra MS C18 analytical column, 4.6 mm i.d.×150 mm, (Waters Corp., Milford, Mass., USA) fitted with a precolumn filter (XTerra MS C18, 3.9 mm×20mm). The column was maintained at 30° C. Data acquisition and instrument setting were controlled using HP Chemstation software (ver.8.03).

Data set [2] can be described thus: Solubility in water at fixed concentrations (5 mg per 0.1, 0.2 or 0.25 mL). In kind it is physicochemical.

We go through 11 compounds from patent US7745436B2, “Disalt inhibitors of IL-12 production” (Synta Pharmaceuticals Corporation, priority 2004, dated 2010).

Broadly, the melting point is the temperature, or range, at which the solid turns liquid. `C(=NNc1cc(N2CCOCC2)nc(OCCc2ccccn2)n1)c1c[nH]c2ccccc12` yielded a melting point of 160 to 165 °C.

Turning to `CN(N=Cc1c[nH]c2ccccc12)c1cc(N2CCOCC2)nc(OCCc2ccccn2)n1`, the melting point was in the range of 130 to 140 °C.

In turn, `Cc1cccc(C=NNc2nc(OCCc3ccccn3)nc(N3CCOCC3)n2)c1` showed a melting point of 143 to 147 °C.

Compound `C(=NNc1nc(OCCc2ccccn2)nc(N2CCOCC2)n1)c1c[nH]c2ccccc12` registered a melting point of 158 to 161 °C.

In general, Solubility refers to the dissolved amount per volume that the medium holds. Consider `CS(=O)(=O)O.Cc1cccc(C=NNc2cc(N3CCOCC3)nc(OCCc3ccccn3)n2)c1` [{[(1)(1H^+)]^1+•[1(CH3SO3^−)]^1−}, N-(3-Methyl-benzylidene)-N′-[6-morpholin-4-yl-2-(2-pyridin-2-yl-ethoxy)-pyrimidin-4-yl]-hydrazine 1 methanesulfonate (mesylate)], for which the “Solubility” value in data set [1] amounted to 52.0 ± 0.1 mg/mL.

As for `Cc1cccc(C=NNc2cc(N3CCOCC3)nc(OCCc3ccccn3)n2)c1.Cl` [{[(1)(2H^+)]^1+•[1(Cl^−)]^1−}, N-(3 -Methyl-benzylidene)-N′-[6-morpholin-4-yl-2-(2-pyridin-2-yl-ethoxy)-pyrimidin-4-yl]-hydrazine (1) hydrochloride], in data set [1], the “Solubility” value was found to be 12.6 ± 0.4 mg/mL.

On to `CS(=O)(=O)O.CS(=O)(=O)O.Cc1cccc(C=NNc2cc(N3CCOCC3)nc(OCCc3ccccn3)n2)c1` [{[(1)(2H^+)]^2+•[2(CH3SO3^−)]^2−}, N-(3-Methyl-benzylidene)-N′-[6-morpholin-4-yl-2-(2-pyridin-2-yl-ethoxy)-pyrimidin-4-yl]-hydrazine (1) dimethanesulfonate (dimesylate)], for which the “solubility of disalt relative to the solubility of the corresponding monosalt” value in data set [1] (versus monosalt {[(1)(1H^+)]^1+.[1(CH3SO3^−)]}) is “more than ten times greater”. Also, the “Solubility” value in data set [1] stood at 831 ± 5 mg/mL.

Take `Cc1cccc(C=NNc2cc(N3CCOCC3)nc(OCCc3ccccn3)n2)c1.Cl.Cl` [{[(1)(2H^+)]^2+•[2(Cl^−)]^2−}, N-(3-Methyl-benzylidene)-N′-[6-morpholin-4-yl-2-(2-pyridin-2-yl-ethoxy)-pyrimidin-4-yl]-hydrazine (1) dihydrogenchloride (dichloride)]: the “Solubility” value in data set [1] was determined as 213 ± 5 mg/mL. Further, the “solubility in water at a concentration of 5 mg/0.1 mL” value in data set [2] is “soluble”.

For `Cc1cccc(C=NNc2cc(N3CCOCC3)nc(OCCc3ccccn3)n2)c1.O=[N+]([O-])O.O=[N+]([O-])O` [{[(1)(2H^+)]^2+•[2(NO3^−)]^2−}, N-(3-Methyl-benzylidene)-N′-[6-morpholin-4-yl-2-(2-pyridin-2-yl-ethoxy)-pyrimidin-4-yl]-hydrazine (1) dinitrate], in data set [1], the “Solubility” value was 83.4 ± 0.2 mg/mL. In addition, the “solubility in water at a concentration of 5 mg/0.1 mL” value in data set [2] is reported as “insoluble”. In data set [2] (5 mg/0.2 mL), the “solubility in water at a concentration of 5 mg/0.2 mL” value is on record as “partially soluble”. Moreover, in data set [2] (5 mg/0.25 mL), the “solubility in water at a concentration of 5 mg/0.25 mL” value is “partially soluble”.

Turning to `C(=NNc1cc(N2CCOCC2)nc(OCCc2ccccn2)n1)c1c[nH]c2ccccc12.CS(=O)(=O)O.CS(=O)(=O)O` [{[(2)(2H^+)]^2+•[2(CH3SO3^−)]^2−}, N-(1H-indol-3-ylmethylene)—N′-[6-morpholin-4-yl-2-(2-pyridin-2-yl-ethoxy)-pyrimidin-4-yl]-hydrazine (2) dimethanesulfonate (dimesylate)], the “Solubility” value in data set [1] came to 454 ± 5 mg/mL.

Consider `CN(N=Cc1c[nH]c2ccccc12)c1cc(N2CCOCC2)nc(OCCc2ccccn2)n1.CS(=O)(=O)O.CS(=O)(=O)O` [{[(3)(2H^+)]^2+•[2(CH3SO3^−)]^2−}, N′-(1H-indol-3-ylmethylene)-N-methyl-N-[6-morpholin-4-yl-2-(2-pyridin-2-yl-ethoxy)-pyrimidin-4-yl]-hydrazine (3) dimesylate], for which the “Solubility” value in data set [1] was 306 ± 14 mg/mL. The Solubility values of the last two compounds are within 1.5-fold of each other.
